Values after ≈ are worked out from the molar mass of the structure shown.
Legend:
[1] = tested on: Mycobacterium tuberculosis; test: Antitubercular activity against dormant phase Mycobacterium tuberculosis H37Ra ATCC 25177 incubated for 12 days by XTT reduction menadione assay; type: functional, organism-based; details: 288 h
[2] = Antioxidant activity assessed as DPPH radical scavenging activity after 30 mins by spectrophotometric analysis; type: physicochemical
[3] = Cytotoxicity against human THP1 cells assessed as growth inhibition after 48 hrs by MTT assay; type: cell-based, THP-1; details: for GI50 at 48 h: THP1 cells; for GI90: thp-1, 48 h
[4] = (§1) Cytotoxicity against human A549 cells assessed as growth inhibition after 48 hrs by MTT assay; type: cell-based; details: A549 cells
[5] = tested on: A549; test: as §1; type: cell-based; details: a549, 48 h
[6] = Cytotoxicity against human PANC1 cells assessed as growth inhibition after 48 hrs by MTT assay; type: cell-based, PANC-1; details: for GI50 at 48 h: PANC1 cells; for GI90: panc-1, 48 h
[7] = Selectivity index, ratio of GI50 for human THP1 cells to MIC for dormant phase Mycobacterium tuberculosis H37Ra ATCC 25177; type: toxicity, cell-based, THP-1; details: read-out: Selectivity Index
[8] = Selectivity index, ratio of GI50 for human A549 cells to MIC for dormant phase Mycobacterium tuberculosis H37Ra ATCC 25177; type: toxicity, cell-based; details: read-out: Selectivity Index
[9] = Selectivity index, ratio of GI50 for human PANC1 cells to MIC for dormant phase Mycobacterium tuberculosis H37Ra ATCC 25177; type: toxicity, cell-based, PANC-1; details: read-out: Selectivity Index

SMILES | IC50 [1] | MIC [1] | IC50 [2] | GI50 at 48 h [3] | GI90 [3] | GI50 at 48 h [4] | GI90 [5] | GI50 at 48 h [6] | GI90 [6] | selectivity ratio [7] | selectivity ratio [8] | selectivity ratio [9]
O=[N+]([O-])c1ccc(Cn2cc(COc3ccc(Cl)cc3)nn2)cc1 | 3.6 µg/mL (≈ 10.4 µM) | 27.5 µg/mL (≈ 79.8 µM) | 24.2 µg/mL (≈ 70.2 µM) | 31.1 µg/mL (≈ 90.2 µM) | 88.9 µg/mL (≈ 258 µM) | > 100 µg/mL | > 100 µg/mL | > 100 µg/mL | > 100 µg/mL | 1.1 | > 3.6 | > 3.6
Clc1ccc(Cn2cc(COc3ccc(Cl)cc3)nn2)cc1 | 0.7 µg/mL (≈ 2.09 µM) | 8.2 µg/mL (≈ 24.5 µM) | 26.1 µg/mL (≈ 78.1 µM) | 17.4 µg/mL (≈ 52.1 µM) | 89.7 µg/mL (≈ 268 µM) | > 100 µg/mL | > 100 µg/mL | > 100 µg/mL | > 100 µg/mL | 2.1 | > 12.2 | > 12.2
Cc1cc(OCc2cn(Cc3ccc([N+](=O)[O-])cc3)nn2)ccc1Cl | 0.8 µg/mL (≈ 2.23 µM) | 28.2 µg/mL (≈ 78.6 µM) | 13.4 µg/mL (≈ 37.3 µM) | 27.9 µg/mL (≈ 77.8 µM) | 84.3 µg/mL (≈ 235 µM) | > 100 µg/mL | > 100 µg/mL | > 100 µg/mL | > 100 µg/mL | 1 | > 3.6 | > 3.6
Clc1ccc(OCc2cn(Cc3ccc(Br)cc3)nn2)cc1 | 0.5 µg/mL (≈ 1.32 µM) | 5.8 µg/mL (≈ 15.3 µM) | 11 µg/mL (≈ 29.1 µM) | 52.9 µg/mL (≈ 140 µM) | > 100 µg/mL | > 100 µg/mL | > 100 µg/mL | > 100 µg/mL | > 100 µg/mL | 9.2 | > 17.3 | > 17.3
Clc1ccc(OCc2cn(Cc3cccc(Cl)c3)nn2)cc1 | 2.9 µg/mL (≈ 8.68 µM) | 25.8 µg/mL (≈ 77.2 µM) | 23.3 µg/mL (≈ 69.7 µM) | 20.9 µg/mL (≈ 62.5 µM) | > 100 µg/mL | > 100 µg/mL | > 100 µg/mL | > 100 µg/mL | > 100 µg/mL | 0.8 | > 3.9 | > 3.9
O=[N+]([O-])c1ccc(Cn2cc(COc3ccccc3)nn2)cc1 | 1.7 µg/mL (≈ 5.48 µM) | 28 µg/mL (≈ 90.2 µM) | 10.1 µg/mL (≈ 32.5 µM) | 62.9 µg/mL (≈ 203 µM) | > 100 µg/mL | > 100 µg/mL | > 100 µg/mL | > 100 µg/mL | > 100 µg/mL | 2.2 | > 3.6 | > 3.6
Cc1ccc(OCc2cn(Cc3ccc([N+](=O)[O-])cc3)nn2)cc1 | 1.1 µg/mL (≈ 3.39 µM) | 29.9 µg/mL (≈ 92.2 µM) | 10.9 µg/mL (≈ 33.6 µM) | 14.2 µg/mL (≈ 43.8 µM) | 66.4 µg/mL (≈ 205 µM) | > 100 µg/mL | > 100 µg/mL | > 100 µg/mL | > 100 µg/mL | 0.5 | > 3.3 | > 3.3
